Source: ChEMBL document CHEMBL1201862, “PubChem BioAssay data set” (2004)
Calls of active or inactive are those of the source.

What was measured:
[1] = biological target: T1, Fatty acid synthase (Homo sapiens, UniProt P49327); assay: inhibition of human FAS-TE enzyme activity – biochemical, endpoint fluorescence intensity, uHTS hits, dose response (AID 624327); type: functional;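 also: fluorescence from hydrolysis of an O-methyl fluorescein acyl ester substrate by the enzyme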
[2] = biological target: Beta-2 adrenergic receptor (Homo sapiens, UniProt P07550); assay: ADRB2 activation measured by internalization – cell-based, FAP fluorogen, flow cytometry, cherry pick 1, dose response (AID 588763); type: functional
Sequence of Beta-2 adrenergic receptor (P07550 whole entry): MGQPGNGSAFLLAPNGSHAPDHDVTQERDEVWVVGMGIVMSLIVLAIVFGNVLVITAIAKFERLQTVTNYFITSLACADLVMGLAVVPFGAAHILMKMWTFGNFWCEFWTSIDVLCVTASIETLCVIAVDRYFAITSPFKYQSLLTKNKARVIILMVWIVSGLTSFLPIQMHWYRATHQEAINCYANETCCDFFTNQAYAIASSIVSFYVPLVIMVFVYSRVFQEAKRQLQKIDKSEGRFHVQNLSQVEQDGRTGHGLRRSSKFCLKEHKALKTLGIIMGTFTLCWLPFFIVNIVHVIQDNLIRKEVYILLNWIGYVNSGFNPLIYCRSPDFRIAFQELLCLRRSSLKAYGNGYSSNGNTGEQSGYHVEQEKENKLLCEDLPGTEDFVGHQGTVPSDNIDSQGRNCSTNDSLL

[3] = biological target: T1, Fatty acid synthase; assay: inhibition of human FAS-TE enzyme activity – biochemical, kinetic fluorescence intensity, dose response (AID 624326); type: functional;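 also: rate of fluorescence rise from hydrolysis of a fluorogenic O-methyl fluorescein ester substrate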
[4] = system: HEK293; assay: HEK293T cell viability loss, resazurin readout – resazurin fluorescence, cytotoxicity control for NF-kB activator project, SAR follow-up (AID 493251); type: functional, cell-based; details: Homo sapiens
[5] = HEK-293T cell viability reduction – luminescence, B-cell screen hits, cytotoxicity control for BCR NF-kB inhibitor project, dose response (AID 489021); type: functional, cell-based;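 also: HEK-293T cells carrying an NF-kB luciferase reporter; cells exposed to compound for about 14 hours before viability readout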
[6] = system: Candida albicans; assay: C. albicans growth inhibition with fluconazole – CaCi-2 strain, Alamar Blue, dry powder, set 4, dose response (AID 488943); type: functional, organism-based
[7] = system: Candida albicans; assay: single-agent antifungal toxicity in C. albicans – CaCi-2 strain, Alamar Blue, dry powder, set 2, counter-screen for antifungal drug resistance project, dose response (AID 488893); type: functional, organism-based
[8] = system: Candida albicans; assay: Candida growth reduction in fluconazole presence – CaCi-2 strain, Alamar Blue, dry powder, set 2, antifungal resistance reversal project, dose response (AID 488930); type: functional, organism-based
[9] = system: Candida albicans; assay: resistant Candida growth with fluconazole co-treatment – CaCi-8 strain, Alamar Blue, dry powder, set 2, dose response (AID 488909); type: functional, organism-based
[10] = system: Candida albicans; assay: fluconazole-resistant Candida strain growth inhibitors – CaCi-8 strain, dry powder, set 4, dose response (AID 488950); type: functional, organism-based
[11] = biological target: T2, Sentrin-specific protease 8 (Homo sapiens, UniProt Q96LD8); assay: inhibition of sentrin protease 8 – biochemical, luminescence, set 2, SAR follow-up (AID 588601); type: functional
T2 sequence (Q96LD8 whole entry): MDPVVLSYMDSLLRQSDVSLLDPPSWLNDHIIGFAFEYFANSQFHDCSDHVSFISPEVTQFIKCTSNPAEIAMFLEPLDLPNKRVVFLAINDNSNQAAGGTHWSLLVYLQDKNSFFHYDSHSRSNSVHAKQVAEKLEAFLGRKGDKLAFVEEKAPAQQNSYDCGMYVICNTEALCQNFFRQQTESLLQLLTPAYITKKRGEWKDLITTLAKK

[12] = biological target: T3, Sentrin-specific protease 6 (Homo sapiens, UniProt Q9GZR1); assay: inhibition of human SENP6 catalytic domain – biochemical, luminescence, set 2, SAR follow-up (AID 588598); type: functional
T3 sequence (Q9GZR1 whole entry): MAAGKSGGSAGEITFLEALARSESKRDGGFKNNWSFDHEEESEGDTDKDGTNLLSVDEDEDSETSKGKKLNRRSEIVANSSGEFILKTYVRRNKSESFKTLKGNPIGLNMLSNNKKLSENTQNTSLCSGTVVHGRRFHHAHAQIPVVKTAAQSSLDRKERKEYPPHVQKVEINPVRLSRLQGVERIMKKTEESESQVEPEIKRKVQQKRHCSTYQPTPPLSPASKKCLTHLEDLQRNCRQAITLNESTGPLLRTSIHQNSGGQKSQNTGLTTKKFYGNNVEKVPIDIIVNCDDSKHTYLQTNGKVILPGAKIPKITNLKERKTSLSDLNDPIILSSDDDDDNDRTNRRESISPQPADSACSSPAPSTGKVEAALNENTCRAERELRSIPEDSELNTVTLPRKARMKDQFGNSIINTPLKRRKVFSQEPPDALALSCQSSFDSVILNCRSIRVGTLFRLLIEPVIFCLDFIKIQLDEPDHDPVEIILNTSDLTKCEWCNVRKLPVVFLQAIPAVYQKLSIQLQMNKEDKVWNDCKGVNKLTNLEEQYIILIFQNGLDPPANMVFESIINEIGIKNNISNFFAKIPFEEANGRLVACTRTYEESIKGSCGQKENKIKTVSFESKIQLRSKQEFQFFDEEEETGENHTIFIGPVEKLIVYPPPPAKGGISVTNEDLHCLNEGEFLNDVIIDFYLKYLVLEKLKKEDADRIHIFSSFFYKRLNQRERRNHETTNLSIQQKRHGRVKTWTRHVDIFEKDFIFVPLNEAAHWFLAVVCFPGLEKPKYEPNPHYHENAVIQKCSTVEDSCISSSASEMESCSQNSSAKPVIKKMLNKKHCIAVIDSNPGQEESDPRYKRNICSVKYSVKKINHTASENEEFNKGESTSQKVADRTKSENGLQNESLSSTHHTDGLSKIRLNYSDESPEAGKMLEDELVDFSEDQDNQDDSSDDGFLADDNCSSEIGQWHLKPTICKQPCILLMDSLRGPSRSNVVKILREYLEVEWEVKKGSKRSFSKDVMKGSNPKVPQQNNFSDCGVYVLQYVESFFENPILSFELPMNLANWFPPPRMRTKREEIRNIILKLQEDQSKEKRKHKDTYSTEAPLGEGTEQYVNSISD

[13] = biological target: T4, Caspase-3 (Homo sapiens, UniProt P42574); assay: inhibition of recombinant caspase-3 activity – biochemical, luminescence, set 2, selectivity assay for SENP protease inhibitor project, SAR follow-up (AID 588599); type: functional
T4 sequence (P42574 whole entry): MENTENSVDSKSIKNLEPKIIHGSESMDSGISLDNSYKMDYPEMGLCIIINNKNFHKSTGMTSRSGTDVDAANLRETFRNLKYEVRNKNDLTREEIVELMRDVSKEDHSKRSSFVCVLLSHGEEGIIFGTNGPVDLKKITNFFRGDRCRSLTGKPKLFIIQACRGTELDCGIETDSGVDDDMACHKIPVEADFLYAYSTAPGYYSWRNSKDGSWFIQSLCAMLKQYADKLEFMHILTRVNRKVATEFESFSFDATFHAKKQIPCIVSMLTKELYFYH

[14] = biological target: T5, Sentrin-specific protease 7 (Homo sapiens, UniProt Q9BQF6); assay: inhibition of human SENP7 cleavage activity – biochemical, luminescence, set 2, SAR follow-up (AID 588600); type: functional
T5 sequence (Q9BQF6 whole entry): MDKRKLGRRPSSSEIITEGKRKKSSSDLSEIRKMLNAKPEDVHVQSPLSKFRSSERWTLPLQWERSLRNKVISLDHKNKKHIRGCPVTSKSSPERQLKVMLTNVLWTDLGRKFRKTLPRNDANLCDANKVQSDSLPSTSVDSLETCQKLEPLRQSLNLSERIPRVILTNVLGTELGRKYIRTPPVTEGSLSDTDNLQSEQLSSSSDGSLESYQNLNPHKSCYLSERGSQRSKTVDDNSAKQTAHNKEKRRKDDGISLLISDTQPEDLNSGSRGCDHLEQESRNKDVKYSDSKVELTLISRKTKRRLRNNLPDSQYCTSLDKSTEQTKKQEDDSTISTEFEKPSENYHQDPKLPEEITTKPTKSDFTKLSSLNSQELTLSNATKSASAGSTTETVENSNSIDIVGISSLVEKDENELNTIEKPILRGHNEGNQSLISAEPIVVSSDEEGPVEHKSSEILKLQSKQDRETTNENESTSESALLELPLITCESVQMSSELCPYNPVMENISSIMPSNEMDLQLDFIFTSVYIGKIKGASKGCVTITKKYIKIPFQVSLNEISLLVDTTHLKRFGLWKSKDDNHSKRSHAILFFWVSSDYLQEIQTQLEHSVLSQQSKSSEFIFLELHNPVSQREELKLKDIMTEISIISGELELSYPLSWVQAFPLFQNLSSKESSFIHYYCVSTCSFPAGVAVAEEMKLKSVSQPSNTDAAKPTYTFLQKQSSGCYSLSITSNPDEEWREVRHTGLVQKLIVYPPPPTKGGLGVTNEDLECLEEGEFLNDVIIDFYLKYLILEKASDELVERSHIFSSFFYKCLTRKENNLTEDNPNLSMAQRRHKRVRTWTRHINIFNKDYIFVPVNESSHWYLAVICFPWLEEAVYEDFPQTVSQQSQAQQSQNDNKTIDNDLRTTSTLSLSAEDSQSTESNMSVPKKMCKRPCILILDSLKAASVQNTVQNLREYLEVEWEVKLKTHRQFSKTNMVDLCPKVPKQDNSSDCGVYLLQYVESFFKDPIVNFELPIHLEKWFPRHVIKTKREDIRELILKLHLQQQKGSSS

T1 sequence (P49327 whole entry): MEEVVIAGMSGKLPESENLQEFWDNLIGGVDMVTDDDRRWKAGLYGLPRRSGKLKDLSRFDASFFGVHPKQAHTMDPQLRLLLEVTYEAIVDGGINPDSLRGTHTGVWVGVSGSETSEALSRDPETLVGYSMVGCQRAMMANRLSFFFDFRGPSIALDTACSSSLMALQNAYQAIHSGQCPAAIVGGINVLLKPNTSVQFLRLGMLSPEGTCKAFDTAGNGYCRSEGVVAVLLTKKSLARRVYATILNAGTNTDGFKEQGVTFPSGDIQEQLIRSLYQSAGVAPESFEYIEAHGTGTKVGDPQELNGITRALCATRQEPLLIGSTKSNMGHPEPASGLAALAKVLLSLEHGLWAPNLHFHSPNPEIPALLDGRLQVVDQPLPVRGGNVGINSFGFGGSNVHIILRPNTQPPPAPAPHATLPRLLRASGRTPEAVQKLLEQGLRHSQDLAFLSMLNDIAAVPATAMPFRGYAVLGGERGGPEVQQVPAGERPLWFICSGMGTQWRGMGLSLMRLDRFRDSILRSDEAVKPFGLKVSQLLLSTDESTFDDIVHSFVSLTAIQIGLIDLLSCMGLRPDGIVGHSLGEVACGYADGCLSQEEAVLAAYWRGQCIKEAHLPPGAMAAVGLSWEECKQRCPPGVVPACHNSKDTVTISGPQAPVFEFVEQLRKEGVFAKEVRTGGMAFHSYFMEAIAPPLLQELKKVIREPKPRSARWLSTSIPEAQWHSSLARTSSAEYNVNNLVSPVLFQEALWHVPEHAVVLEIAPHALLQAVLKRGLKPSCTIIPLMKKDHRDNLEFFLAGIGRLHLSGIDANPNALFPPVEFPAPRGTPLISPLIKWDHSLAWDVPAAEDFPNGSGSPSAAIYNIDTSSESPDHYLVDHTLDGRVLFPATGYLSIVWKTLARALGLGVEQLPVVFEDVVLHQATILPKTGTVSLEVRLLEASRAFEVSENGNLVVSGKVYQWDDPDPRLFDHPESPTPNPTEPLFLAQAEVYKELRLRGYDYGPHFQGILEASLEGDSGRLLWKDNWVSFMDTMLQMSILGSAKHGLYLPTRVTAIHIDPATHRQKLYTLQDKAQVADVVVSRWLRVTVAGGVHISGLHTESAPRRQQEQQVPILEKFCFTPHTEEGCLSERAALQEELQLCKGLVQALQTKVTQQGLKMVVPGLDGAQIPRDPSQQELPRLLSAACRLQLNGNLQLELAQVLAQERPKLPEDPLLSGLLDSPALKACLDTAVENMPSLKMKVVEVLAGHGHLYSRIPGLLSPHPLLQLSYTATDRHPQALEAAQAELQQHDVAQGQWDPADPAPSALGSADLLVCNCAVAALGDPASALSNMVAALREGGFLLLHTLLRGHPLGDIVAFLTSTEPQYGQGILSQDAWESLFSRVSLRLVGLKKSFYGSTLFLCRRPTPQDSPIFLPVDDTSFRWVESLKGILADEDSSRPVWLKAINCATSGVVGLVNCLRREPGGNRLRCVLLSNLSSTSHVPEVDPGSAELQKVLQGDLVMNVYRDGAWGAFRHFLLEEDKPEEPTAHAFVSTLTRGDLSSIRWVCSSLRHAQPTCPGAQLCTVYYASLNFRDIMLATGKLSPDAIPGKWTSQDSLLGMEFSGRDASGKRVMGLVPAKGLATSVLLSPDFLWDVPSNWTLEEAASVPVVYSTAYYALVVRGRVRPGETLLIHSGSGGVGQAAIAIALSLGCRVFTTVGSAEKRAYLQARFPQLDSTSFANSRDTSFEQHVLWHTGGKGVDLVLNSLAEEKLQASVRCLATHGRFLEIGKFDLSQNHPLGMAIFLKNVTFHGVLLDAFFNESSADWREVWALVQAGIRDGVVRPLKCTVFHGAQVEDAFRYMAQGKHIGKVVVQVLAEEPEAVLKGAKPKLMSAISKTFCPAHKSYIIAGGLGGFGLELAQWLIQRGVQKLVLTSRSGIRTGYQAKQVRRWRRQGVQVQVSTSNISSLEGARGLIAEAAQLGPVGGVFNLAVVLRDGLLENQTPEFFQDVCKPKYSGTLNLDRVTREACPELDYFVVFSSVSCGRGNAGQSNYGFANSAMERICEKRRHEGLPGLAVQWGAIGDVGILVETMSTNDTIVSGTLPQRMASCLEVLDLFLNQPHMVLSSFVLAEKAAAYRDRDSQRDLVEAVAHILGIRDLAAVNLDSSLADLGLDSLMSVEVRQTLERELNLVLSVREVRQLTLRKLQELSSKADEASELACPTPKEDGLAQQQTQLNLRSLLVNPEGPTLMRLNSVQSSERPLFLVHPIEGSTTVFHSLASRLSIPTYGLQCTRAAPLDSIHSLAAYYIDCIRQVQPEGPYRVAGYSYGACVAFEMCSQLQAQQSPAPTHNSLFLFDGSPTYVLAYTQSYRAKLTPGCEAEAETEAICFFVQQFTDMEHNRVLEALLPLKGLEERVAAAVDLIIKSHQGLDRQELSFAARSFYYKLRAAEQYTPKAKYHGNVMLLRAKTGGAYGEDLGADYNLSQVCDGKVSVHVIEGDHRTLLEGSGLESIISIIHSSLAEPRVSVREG

Compound: N#Cc1cc(-c2ccccc2)nc(Oc2ccc(Cl)cc2)n1
- IC50 [1]: 7.97 µM (active)
- EC50 [2]: 1.25 µM (active)
- IC50 [3]: 9.1 µM (active)

Compound: CCc1ccc(-c2nc(CSCC(=O)NC3CC3)c(C)o2)cc1
- IC50 [4]: > 80 µM (inactive)
- IC50 [5]: > 80 µM (inactive)

Compound: COc1ccc(C(=O)N2CCN(c3ccnc4cc(Cl)ccc34)CC2)cc1
- AC50 [6]: 4.15 µM (active)
- AC50 [7]: 32.2 µM (active)
- AC50 [8]: 4.25 µM (active)
- AC50 [9]: 10.2 µM (active)
- AC50 [10]: 5.38 µM (active)

Compound: Cc1[nH]c2ccccc2c1C(=O)C(=O)NCCCN1CCOCC1
- IC50 [11]: > 99 µM (inactive)
- IC50 [12]: > 99 µM (inactive)
- IC50 [13]: > 99 µM (inactive)
- IC50 [14]: > 99 µM (inactive)
